In test [1] the target is T1, ALK2 R206H (GST-tagged mutant ALK2) (Homo sapiens, UniProt Q04771, R206H).
T1 construct: purchased Carna Bioscience or ThermoFisher 09-148 or PV6232
T1 sequence (Q04771 21-509 R206H): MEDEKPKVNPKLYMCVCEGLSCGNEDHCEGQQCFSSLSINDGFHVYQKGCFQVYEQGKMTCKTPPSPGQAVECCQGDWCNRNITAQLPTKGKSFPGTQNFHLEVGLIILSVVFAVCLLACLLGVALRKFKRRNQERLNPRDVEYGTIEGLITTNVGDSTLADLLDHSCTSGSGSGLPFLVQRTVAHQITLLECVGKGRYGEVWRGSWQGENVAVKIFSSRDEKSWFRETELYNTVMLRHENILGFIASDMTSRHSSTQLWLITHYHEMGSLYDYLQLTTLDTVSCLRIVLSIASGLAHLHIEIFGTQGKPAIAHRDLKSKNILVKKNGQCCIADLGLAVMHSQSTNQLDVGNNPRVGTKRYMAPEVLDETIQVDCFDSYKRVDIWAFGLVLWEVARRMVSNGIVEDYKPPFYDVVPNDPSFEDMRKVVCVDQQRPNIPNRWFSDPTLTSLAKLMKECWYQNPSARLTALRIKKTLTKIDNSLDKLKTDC
Briefly: ALK binding assay (LANTHASCREEN TR-FRET competitive binding, displacement of Kinase Tracer 178). The following applies: ALK2 R206H, LANTHASCREEN TR-FRET competitive binding; read-out: Binding Assay (IC50).

For the next test, the target named is T2, human ALK2 R206H (Homo sapiens, UniProt Q04771, R206H).
T2 construct: expressed in transfected cells; host or cells: HEK293 (ATCC CRL1573), lentivirus transduction, blasticidin selection
T2 sequence (Q04771 21-509 R206H): T1 sequence (Q04771 21-509 R206H)
The test is described as follows: Cell-based ALK2-R206H cell activity assay (Smad1-Ser463/Ser465 phosphorylation by AlphaLISA in HEK293-ALK2-R206H cells). The following applies: read-out: Cell Line (Cell Assay IC50). On the procedure: A HEK293 (ATCC, Cat^# CRL1573) based stable cell line expressing human ALK2 R206H cDNA (synthesized by GeneScript, Piscataway, N.J.) and a FLAG tag at the C-terminus was generated by lentivirus transduction and subsequent blasticidin (Life Technologies, Cat^#-A1113902) selection at 10 μg/ml for >2 wks. This cell line was named HEK293-ALK2-R206H.
Test compounds were first diluted to 4 mM or 0.4 mM and then serially diluted 3-fold into 10 different concentrations using DMSO. […] Two μl of the diluted compounds were then dispensed into the HEK293-ALK2-R206H cell-containing wells of the microplates in duplicates. In this way, each compound was tested in 10 doses (3-fold serial dilution with the top concentration being 10 μM or 1 μM). Liquid handling was achieved using a Bravo Automated Liquid Handling Platform (Agilent Technologies). DMSO without compound was used as a negative control. The positive control was 1 μM LDN193189, a known bone morphogenetic protein (BMP inhibitor).
The 10-point dose response curve was used to calculate the IC50 values.
Blank values in the table indicate that the particular compound was not tested in this assay.

Molecules are shown by their SMILES.

With `CCN1CCC(c2ccc(-c3cc4c(N5CCN(C(=O)CC6CC6)CC5)ccnn4c3)cc2)C1` (centres unmarked) [Compound 205], the values for the IC50 (in test [1]; on human ALK2 R206H) were 10 to 50 nM and 100 to 500 nM, respectively.
For `CCN1CCC[C@H](c2ccc(-c3cc4c(N5CCN(C(=O)C6CC6)CC5)ccnn4c3)cc2)C1` [Compound 207] the same measures were under 10 nM and under 100 nM.
For `CCN1CCC(c2ccc(-c3cc4c(N5CCN(C(=O)[C@H]6C[C@@H]6C)CC5)ccnn4c3)cc2)C1` (some centres unmarked) [Compound 208] the same measures were under 10 nM and under 100 nM.
For `CC(C)N1CCCC1c1ccc(-c2cc3c(N4CCN(C(=O)C5CC5)CC4)ccnn3c2)cc1` (centres unmarked) [Compound 209], the IC50 in test [1] is under 10 nM; at human ALK2 R206H it was under 100 nM.
On the same counts, the results for `CC(C)N1CCC[C@H]1c1ccc(-c2cc3c(N4CCN(C(=O)C5CC5)CC4)ccnn3c2)cc1` [Compound 210] are under 10 nM and under 100 nM.
Regarding `CC(C)N1CCC[C@@H]1c1ccc(-c2cc3c(N4CCN(C(=O)C5CC5)CC4)ccnn3c2)cc1` [Compound 211], the IC50 is under 10 nM in test [1] and under 100 nM on human ALK2 R206H.
On the same counts, the results for `CN1CCN(c2ccc(-c3cc4c(N5CCN(C(=O)C6CCC6)CC5)ccnn4c3)cc2)CC1` [Compound 212] are under 10 nM and 100 to 500 nM.
With `CCN1CCN(c2ccc(-c3cc4c(N5CCN(C(=O)C6CC6)CC5)ccnn4c3)cc2)CC1` [Compound 213], the IC50 is under 10 nM in test [1] and under 100 nM at human ALK2 R206H.
For `CCN1CCOC(c2ccc(-c3cc4c(N5CCN(C(=O)C6CC6)CC5)ccnn4c3)cc2)C1` (centres unmarked) [Compound 214, cyclopropyl(4-(6-(4-(4-ethylmorpholin-2-yl)phenyl)pyrrolo[1,2-b]pyridazin-4-yl)piperazin-1-yl)methanone], the IC50 lay in the range of 10 to 50 nM in test [1] and 100 to 500 nM at human ALK2 R206H.
For `CCN1CCC(Oc2ccc(-c3cc4c(N5CCN(C(=O)C6CC6)CC5)ccnn4c3)cc2)C1` (centres unmarked) [Compound 216] the same measures were under 10 nM and under 100 nM.
For `CCN1CC(COc2ccc(-c3cc4c(N5CCN(C(=O)C6CC6)CC5)ccnn4c3)cc2)C1` [Compound 217] the same measures were under 10 nM and 100 to 500 nM.
`CC(C)N1CC(O)(c2ccc(-c3cc4c(N5CCN(C(=O)C6CC6)CC5)ccnn4c3)cc2)C1` [Compound 219]: the IC50 is under 10 nM in test [1] and under 100 nM on human ALK2 R206H.
On the same counts, the results for `CCN1CCN(c2ccc(-c3cc4c(N5CCN(C(=O)C6CC6)CC5)ccnn4c3)cn2)CC1` [Compound 221] are under 10 nM and 100 to 500 nM.
For `CCN1CCN(c2ccc(-c3cc4c(N5CCN(C(=O)C6CC6)CC5)ccnn4c3)nc2)CC1` [Compound 222] the same measures were under 10 nM and under 100 nM.
On the same counts, the results for `CCN1CCN(c2ccc(-c3cc4c(N5CCN(C(=O)C(C)C)CC5)ccnn4c3)cc2)CC1` [Compound 223] are 10 to 50 nM and 100 to 500 nM.
`CCNC(=O)N1CCN(c2ccnn3cc(-c4ccc([C@@H]5CCN(C(C)C)C5)cc4)cc23)CC1` [Compound 224]: the IC50 in test [1] was under 10 nM; on human ALK2 R206H, under 100 nM.
For the compound `CCNC(=O)N1CCN(c2ccnn3cc(-c4ccc([C@H]5CCN(C(C)C)C5)cc4)cc23)CC1` [Compound 225], the IC50 in test [1] is under 10 nM; on human ALK2 R206H, under 100 nM.
For `CCN1CC[C@H](c2ccc(-c3cc4c(N5CCN(C(=O)[C@H]6C[C@H]6F)CC5)ccnn4c3)cc2)C1` [Compound 226] the same measures were under 10 nM and under 100 nM.
On the same counts, the results for `CCN1CC[C@@H](c2ccc(-c3cc4c(N5CCN(C(=O)[C@H]6C[C@H]6F)CC5)ccnn4c3)cc2)C1` [Compound 227] are under 10 nM and under 100 nM.
For `CCN1CC(F)C(c2ccc(-c3cc4c(N5CCN(C(=O)C6CC6)CC5)ccnn4c3)cc2)C1` (centres unmarked) [Compound 228] the same measures were under 10 nM and under 100 nM.
For `O=C(C1CCC1)N1CCN(c2ccnn3cc(-c4ccc(C5(F)CCCNC5)cc4)cc23)CC1` (centres unmarked) [Compound 229], the IC50 was under 10 nM in test [1] and under 100 nM at human ALK2 R206H.
In the case of `CCOC(=O)N1CCN(c2ccnn3cc(-c4ccc(C5CCN(CC)CC5)cc4)cc23)CC1` [Compound 230, ethyl 4-(6-(4-(1-ethylpiperidin-4-yl)phenyl)pyrrolo[1,2-b]pyridazin-4-yl)piperazine-1-carboxylate], the IC50 is under 10 nM in test [1] and under 100 nM at human ALK2 R206H.
For `CCOC(=O)N1CCN(c2ccnn3cc(-c4ccc([C@H]5CCN(C(C)C)C5)cc4)cc23)CC1` [Compound 231] the same measures were under 10 nM and under 100 nM.
On the same counts, the results for `COC(=O)N1CCN(c2ccnn3cc(-c4ccc(C5CCN(C(C)C)CC5)cc4)cc23)CC1` [Compound 232] are under 10 nM and 100 to 500 nM.
For the compound `O=C(C1CC(F)C1)N1CCN(c2ccnn3cc(-c4ccc(N5CCNCC5)cc4)cc23)CC1` (centres unmarked) [Compound 234], the IC50 in test [1] was under 10 nM; at human ALK2 R206H, under 100 nM.
For `CCNC(=O)N1CCN(c2ccnn3cc(-c4ccc(C5(O)CN(C(C)C)C5)cc4)cc23)CC1` [Compound 235] the same measures were under 10 nM and 100 to 500 nM.
On the same counts, the results for `CCOC(=O)N1CCN(c2ccnn3cc(-c4ccc(OC5CN(C(C)C)C5)cc4)cc23)CC1` [Compound 236] are under 10 nM and 100 to 500 nM.
For `[2H]C([2H])([2H])C([2H])([2H])N1CCN(c2ccc(-c3cc4c(N5CCN(C(=O)C6CC6)CC5)ccnn4c3)cc2)CC1` [Compound 237] the same measures were under 10 nM and under 100 nM.
In the case of `O=C(C1CC1)N1CCN(c2ccnn3cc(-c4ccc(C5CCNCC5(F)F)cc4)cc23)CC1` (centres unmarked) [Compound 238], the IC50 in test [1] is under 10 nM; on human ALK2 R206H it was 100 to 500 nM.
On the same counts, the results for `[2H]C([2H])([2H])C([2H])([2H])N1CCN(c2ccc(-c3cc4c(N5CCN(C(=O)NCC)CC5)ccnn4c3)cc2)CC1` [Compound 240] are under 10 nM and under 100 nM.
On the same counts, the results for `CCN1CC2(C1)CN(c1ccc(-c3cc4c(N5CCN(C(=O)C6CC6)CC5)ccnn4c3)cc1)C2` [Compound 241] are under 10 nM and under 100 nM.
On the same counts, the results for `CCN1C[C@@H]2C[C@H]1CN2c1ccc(-c2cc3c(N4CCN(C(=O)C5CC5)CC4)ccnn3c2)cc1` [Compound 242] are under 10 nM and 100 to 500 nM.
In the case of `O=C(C1CC1)N1CCN(c2ccnn3cc(-c4ccc(N5CCN6CCCC6C5)cc4)cc23)CC1` (centres unmarked) [Compound 243], the IC50 was under 10 nM in test [1] and under 100 nM at human ALK2 R206H.
Consider `CC(=O)N1CCC(c2ccc(-c3cc4c(N5CCN(C(=O)C6CC6)CC5)ccnn4c3)cc2)CC1` [Compound 245], for which the IC50 in test [1] lay within 10 to 50 nM; on human ALK2 R206H, 100 to 500 nM.
On the same counts, the results for `CC(C)N1CCC(c2ccc(-c3cc4c(N5CCN(C(=O)C6CC6)CC5)ccnn4c3)cc2)CC1` [Compound 246] are under 10 nM and under 100 nM.
Regarding `CC(C)N1CCC[C@H](c2ccc(-c3cc4c(N5CCN(C(=O)C6CC6)CC5)ccnn4c3)cc2)C1` [Compound 247], the IC50 in test [1] is under 10 nM; at human ALK2 R206H, under 100 nM.
On the same counts, the results for `CC(C)N1CCC[C@@H](c2ccc(-c3cc4c(N5CCN(C(=O)C6CC6)CC5)ccnn4c3)cc2)C1` [Compound 248] are under 10 nM and under 100 nM.
